Reference: patent US20250367193A1, “BIFUNCTIONAL COMPOUNDS CONTAINING SUBSTITUTED PYRIMIDINE DERIVATIVES FOR DEGRADING CYCLIN-DEPENDENT KINASE 2 VIA UBIQUITIN PROTEASOME PATHWAY” (NIKANG THERAPEUTICS, INC., priority 2022, published 2025)

The compounds below were run against T1, CDK2 (Homo sapiens, UniProt P24941) (assay: Inhibition of CDK2: phospho-Rb (S807/811) HTRF measurement in cells). Conditions: OVCAR3 cells (CDK2 dependent cell line), 24 h compound treatment, read-out: pRb.
T1 construct: High-Throughput Measurement of Cellular Endogenous CDK2; endogenous in cells; host or cells: OVCAR3
Format: cell-based
Protocol: Phosphorylation of RB protein at S807/811 are measured using HTRF phospho-RB cellular kits (Cat #64RBS807PEG) from Cisbio.
On Day 1, OVCAR3 (CDK2 dependent cell line) cells are seeded into 96-well tissue-culture treated plates at 20,000 cells/well in 200 μL and incubated overnight at 37° C. in CO2 atmosphere. On Day 2, the cells are treated with test compounds at concentrations from 0.3 to 10,000 nM using HP D300 digital dispenser. Twenty-four hours after compound treatment, cell culture media is removed by flicking the plate and tapping the plate against clean paper towel. Immediately 30 μL 1× lysis buffer is supplemented from the kit and the plate is incubated at room temperature on shaker for 30 min. After homogenization by pipetting up and down, 8 μL cell lysate from 96-well cell culture plate is transferred to 384-well small volume white detection plate. 2 μL premixed detection solution is added and the plate was covered with sealer. To prepare the detection solution, d2 conjugated-phospho-RB antibody and Eu-cryptate conjugated phosphor-RB antibody are diluted into detection buffer following manufacturer's instruction. Detection plates are incubated for 4 h at room temperature and read on ClarioStar (BMG Labtech) in TR-FRET mode ([…]). The TR-FRET ratio (665 nM/620 nM) is plotted against the compound concentration and normalized to DMSO controls. Half maximal inhibition concentration (IC50) values are calculated with a four-parameter logistic fit using GraphPad Prism (version 8; La Jolla, CA).

| IC50 | SMILES |
| --- | --- |
| 28 to 100 nM | Cn1nc(N2CCC(=O)NC2=O)c2ccc(C3CCN(Cc4cccc(S(=O)(=O)N5CCC(Nc6ncc(C(F)(F)F)c(O[C@@H]7CCC[C@@H]7O)n6)CC5)c4)CC3)cc21 (racemic) [Cpd 3, Rac-1-(6-(1-(3-((4-((4-(((1R,2S)-2-hydroxy-cyclopentyl)oxy)-5-(trifluoro-methyl)-pyrimidin-2-yl)amino)piperidin-1-yl)-sulfonyl)benzyl)piperidin-4-yl)-1-methyl-1H-indazol-3-yl)dihydropyrimidine-2,4(1H,3H)-dione] |
| 100 to 500 nM | Cn1nc(N2CCC(=O)NC2=O)c2ccc(C3CCN(CC4CCN(S(=O)(=O)c5ccc(Nc6ncc(C(F)(F)F)c(O[C@H]7CCC[C@H]7O)n6)cc5)CC4)CC3)cc21 (racemic) [compound 6, Rac-1-(6-(1-((1-((4-((4-(((1S,2R)-2-hydroxy-cyclopentyl)oxy)-5-(trifluoromethyl)-pyrimidin-2-yl)amino)phenyl)-sulfonyl)-piperidin-4-yl)methyl)piperidin-4-yl)-1-methyl-1H-indazol-3-yl)dihydropyrimidine-2,4(1H,3H)-dione] |
| 100 to 500 nM | Cn1nc(N2CCC(=O)NC2=O)c2ccc(C3CCN(Cc4cccc(S(=O)(=O)N5CCC(Nc6ncc(C(F)(F)F)c(N7CCCCC7)n6)CC5)c4)CC3)cc21 [Cpd 1, 1-(1-methyl-6-(1-(3-((4-((4-(piperidin-1-yl)-5-(trifluoromethyl)pyrimidin-2-yl)amino)-piperidin-1-yl)sulfonyl)benzyl)-piperidin-4-yl)-1H-indazol-3-yl)dihydropyrimidine-2,4(1H,3H)-dione] |
| 28 to 100 nM | Cn1nc(N2CCC(=O)NC2=O)c2ccc(C3CCN(Cc4cccc(S(=O)(=O)N5CCC(Nc6ncc(C(F)(F)F)c(OC7CCCC7)n6)CC5)c4)CC3)cc21 [Cpd 2, 1-(6-(1-(3-((4-((4-(cyclopentyloxy)-5-(trifluoromethyl)pyrimidin-2-yl)amino)-piperidin-1-yl)sulfonyl)benzyl)-piperidin-4-yl)-1-methyl-1H-indazol-3-yl)dihydro-pyrimidine-2,4(1H,3H)-dione] |
| 100 to 500 nM | Cn1nc(N2CCC(=O)NC2=O)c2ccc(C3CCN(Cc4cccc(S(=O)(=O)N5CCC(Nc6ncc(C(F)(F)F)c(N7CCCC7)n6)CC5)c4)CC3)cc21 [Cpd 4, 1-(1-methyl-6-(1-(3-((4-((4-(pyrrolidin-1-yl)-5-(trifluoromethyl)pyrimidin-2-yl)amino)-piperidin-1-yl)sulfonyl)benzyl)piperidin-4-yl)-1H-indazol-3-yl)dihydropyrimidine-2,4(1H,3H)-dione] |

| SMILES | IC50 |
| --- | --- |
| Cn1nc(N2CCC(=O)NC2=O)c2ccc(C3CCN(Cc4cccc(S(=O)(=O)N5CCC(Nc6ncc(C(F)(F)F)c(OC7CCC7)n6)CC5)c4)CC3)cc21 [Cpd 5, 1-(6-(1-(3-((4-((4-cyclobutoxy-5-(trifluoro-methyl)pyrimidin-2-yl)amino)piperidin-1-yl)sulfonyl)benzyl)piperidin-4-yl)-1-methyl-1H-indazol-3-yl)dihydropyrimidine-2,4(1H,3H)-dione] | 28 to 100 nM |
